Measured values: US20260265252A1, “SOLID STATE FORMS OF IMIPRIDONE DERIVATIVE” (CHIMERIX, INC., priority 2024, published 2026)
Where a name gives a salt, the structure may show the parent alone.

Experiment: ICH-compliant stability study of ONC206-HCl Drug Substance (appearance, XRPD form, HPLC assay, purity/impurities, water content, particle size, microbial)
Type: physicochemical
Set-up: key to Each unidentified impurity (NMT 0.5% area) / Appearance (White to off-white solid) / Polymorphic form (XRPD) (Consistent with form 2 reference diffractogram): C = Conforms; A = Absence
Protocol: The purpose of the ICH-compliant stability study was to evaluate the performance to specifications of ONC206-HCl Drug Substance under specified container closure configuration, storage conditions, and intervals.
The study was performed according to ICH Q1A(R2) and QlE Guidance documents. […]
The Container Closure Systems were: • Primary container: LDPE bag, 4×8 inches (Source: Nexus—64378); bag closure PE 180 nm (Source: Entourage), • Secondary container: LDPE bag, 4×8 inches (Source: Nexus—64378); bag closure PE 180 nm (Source: Entourage), • Tertiary container: Heat-sealed foil bag, 15×30 (Source: SERCALIA S.L.—10234), and • Outer container: Plastic drum, 6 L (Source: Curtec, HDPE ref 54021) or Plastic drum, 3.6 L (Source: Curtec).

[1] = 30 ± 2° C./65% ± 5% RH intermediate conditions, 9 months
[2] = 30 ± 2° C./65% ± 5% RH intermediate conditions, 12 months
[3] = 40 ± 2° C./75% ± 5% RH accelerated conditions, 0 months
[4] = 40 ± 2° C./75% ± 5% RH accelerated conditions, 3 months
[5] = 40 ± 2° C./75% ± 5% RH accelerated conditions, 6 months
[6] = at all conditions, over the course of the study

## O=C1C2=C(CCN(Cc3ccccc3)C2)N2CCN=C2N1Cc1ccc(F)cc1F [ONC206-HCl, 7-benzyl-4-(2,4-difluorobenzyl)-2,4,6,7,8,9-hexahydroimidazo[1,2-a]pyrido[3,4-e]pyrimidin-5(1H)-one]
[1]
  Particle Size (Malvern) D10 (Report result μm): 30.5 μm
  Particle Size (Malvern) D50 (Report result μm): 93.2 μm
  Particle Size (Malvern) D90 (Report result μm): 197.0 μm
  Polymorphic form (XRPD) (Consistent with form 2 reference diffractogram): C
  Purity by HPLC (NLT 98.0% area): 100.0 % area
  Total impurities (NMT 2.0% area): 0.00 % area
  Water Content by Kf (Report result % w/w): 9.3 % w/w
[2]
  Appearance (White to off-white solid): C
  Assay by HPLC-UV (Anhydrous & Solvent Free basis) 97.0-103.0% w/w: 100.0 % w/w
  Each unidentified impurity (NMT 0.5% area): C
  Particle Size (Malvern) D10 (Report result μm): 29.7 μm
  Particle Size (Malvern) D50 (Report result μm): 93.7 μm
  Particle Size (Malvern) D90 (Report result μm): 203.0 μm
  Polymorphic form (XRPD) (Consistent with form 2 reference diffractogram): C
  Purity by HPLC (NLT 98.0% area): 100.0 % area
  Total impurities (NMT 2.0% area): 0.00 % area
  Water Content by Kf (Report result % w/w): 9.3 % w/w
40° C. (Table 40), 75% RH accelerated conditions
  period over which stability is confirmed: 6 months
[3]
  Appearance (White to off-white solid): C
  Assay by HPLC-UV (Anhydrous & Solvent Free basis) 97.0-103.0% w/w: 101.6 % w/w
  Each unidentified impurity (NMT 0.5% area): C
  Particle Size (Malvern) D10 (Report result μm): 28.2 μm
  Particle Size (Malvern) D50 (Report result μm): 91.4 μm
  Particle Size (Malvern) D90 (Report result μm): 201.3 μm
  Polymorphic form (XRPD) (Consistent with form 2 reference diffractogram): C
  Purity by HPLC (NLT 98.0% area): 100.0 % area
  Total impurities (NMT 2.0% area): 0.00 % area
  Water Content by Kf (Report result % w/w): 9.3 % w/w
[4]
  Appearance (White to off-white solid): C
  Assay by HPLC-UV (Anhydrous & Solvent Free basis) 97.0-103.0% w/w: 100.1 % w/w
  Each unidentified impurity (NMT 0.5% area): C
  Particle Size (Malvern) D10 (Report result μm): 28.1 μm
  Particle Size (Malvern) D50 (Report result μm): 91.5 μm
  Particle Size (Malvern) D90 (Report result μm): 199.0 μm
  Polymorphic form (XRPD) (Consistent with form 2 reference diffractogram): C
  Purity by HPLC (NLT 98.0% area): 100.0 % area
  Total impurities (NMT 2.0% area): 0.00 % area
  Water Content by Kf (Report result % w/w): 9.5 % w/w
40 ± 2° C./75% ± 5% RH accelerated conditions, 3 months, peak RRT 1.30
  Each unidentified impurity (Report RRT and % area for peaks ≥0.10% area): 0.10% aire
[5]
  Appearance (White to off-white solid): C
  Assay by HPLC-UV (Anhydrous & Solvent Free basis) 97.0-103.0% w/w: 100.2 % w/w
  Each unidentified impurity (NMT 0.5% area): C
  Particle Size (Malvern) D10 (Report result μm): 29.2 μm
  Particle Size (Malvern) D50 (Report result μm): 92.6 μm
  Particle Size (Malvern) D90 (Report result μm): 201.0 μm
  Polymorphic form (XRPD) (Consistent with form 2 reference diffractogram): C
  Purity by HPLC (NLT 98.0% area): 100.0 % area
  Total impurities (NMT 2.0% area): 0.00 % area
  Water Content by Kf (Report result % w/w): 9.5 % w/w
[6]
  Particle Size (D10, D50 and D90): no significant evolution
  Polymorphic form (XRPD): no significant change
  Purity and total impurities: no significant evolution
  Water Content: no significant evolution
  appearance: no significant change
Over the course of the study
  Assay HPLC: no significant evolution
  microbial results: in specifications
−20° C. (Table 41)
  period over which stability is confirmed: 12 months
−20° C., 0 months
  Appearance (White to off-white solid): C
  Assay by HPLC-UV (Anhydrous & Solvent Free basis) 97.0-103.0% w/w: 101.6 % w/w
  Each unidentified impurity (NMT 0.5% area): C
  Particle Size (Malvern) D50 (Report result μm): 91.4 μm
  Particle Size (Malvern) D90 (Report result μm): 201.3 μm
  Particle Size (Malvern) Dl0 (Report result μm): 28.2 μm
  Polymorphic form (XRPD) (Consistent with form 2 reference diffractogram): C
  Purity by HPLC (NLT 98.0% area): 100.0 % area
  Total impurities (NMT 2.0% area): 0.00 % area
  Water Content by Kf (Report result % w/w): 9.3 % w/w
−20° C., 1 months
  Appearance (White to off-white solid): C
  Assay by HPLC-UV (Anhydrous & Solvent Free basis) 97.0-103.0% w/w: 101.5 % w/w
  Each unidentified impurity (NMT 0.5% area): C
  Particle Size (Malvern) D50 (Report result μm): 89.5 μm
  Particle Size (Malvern) D90 (Report result μm): 193.0 μm
  Particle Size (Malvern) Dl0 (Report result μm): 27.5 μm
  Polymorphic form (XRPD) (Consistent with form 2 reference diffractogram): C
  Purity by HPLC (NLT 98.0% area): 100.0 % area
  Total impurities (NMT 2.0% area): 0.00 % area
  Water Content by Kf (Report result % w/w): 9.3 % w/w
−20° C., 2 months
  Appearance (White to off-white solid): C
  Assay by HPLC-UV (Anhydrous & Solvent Free basis) 97.0-103.0% w/w: 100.2 % w/w
  Each unidentified impurity (NMT 0.5% area): C
  Particle Size (Malvern) D50 (Report result μm): 90.6 μm
  Particle Size (Malvern) D90 (Report result μm): 189.0 μm
  Particle Size (Malvern) Dl0 (Report result μm): 28.8 μm
  Polymorphic form (XRPD) (Consistent with form 2 reference diffractogram): C
  Purity by HPLC (NLT 98.0% area): 100.0 % area
  Total impurities (NMT 2.0% area): 0.00 % area
  Water Content by Kf (Report result % w/w): 9.4 % w/w
−20° C., 3 months
  Appearance (White to off-white solid): C
  Assay by HPLC-UV (Anhydrous & Solvent Free basis) 97.0-103.0% w/w: 100.0 % w/w
  Each unidentified impurity (NMT 0.5% area): C
  Particle Size (Malvern) D50 (Report result μm): 89.4 μm
  Particle Size (Malvern) D90 (Report result μm): 195.0 μm
  Particle Size (Malvern) Dl0 (Report result μm): 27.2 μm
  Polymorphic form (XRPD) (Consistent with form 2 reference diffractogram): C
  Purity by HPLC (NLT 98.0% area): 100.0 % area
  Total impurities (NMT 2.0% area): 0.00 % area
  Water Content by Kf (Report result % w/w): 9.5 % w/w
−20° C., 6 months
  Appearance (White to off-white solid): C
  Assay by HPLC-UV (Anhydrous & Solvent Free basis) 97.0-103.0% w/w: 100.1 % w/w
  Each unidentified impurity (NMT 0.5% area): C
  Particle Size (Malvern) D50 (Report result μm): 89.0 μm
  Particle Size (Malvern) D90 (Report result μm): 192.0 μm
  Particle Size (Malvern) Dl0 (Report result μm): 27.5 μm
  Polymorphic form (XRPD) (Consistent with form 2 reference diffractogram): C
  Purity by HPLC (NLT 98.0% area): 100.0 % area
  Total impurities (NMT 2.0% area): 0.00 % area
  Water Content by Kf (Report result % w/w): 9.3 % w/w
−20° C., 9 months
  Appearance (White to off-white solid): C
  Assay by HPLC-UV (Anhydrous & Solvent Free basis) 97.0-103.0% w/w: 100.4 % w/w
  Each unidentified impurity (NMT 0.5% area): C
  Particle Size (Malvern) D50 (Report result μm): 91.8 μm
  Particle Size (Malvern) D90 (Report result μm): 196.0 μm
  Particle Size (Malvern) Dl0 (Report result μm): 29.5 μm
  Polymorphic form (XRPD) (Consistent with form 2 reference diffractogram): C
  Purity by HPLC (NLT 98.0% area): 100.0 % area
  Total impurities (NMT 2.0% area): 0.00 % area
  Water Content by Kf (Report result % w/w): 9.3 % w/w
−20° C., 12 months
  Appearance (White to off-white solid): C
  Assay by HPLC-UV (Anhydrous & Solvent Free basis) 97.0-103.0% w/w: 99.9 % w/w
  Each unidentified impurity (NMT 0.5% area): C
  Particle Size (Malvern) D50 (Report result μm): 92.2 μm
  Particle Size (Malvern) D90 (Report result μm): 201.0 μm
  Particle Size (Malvern) Dl0 (Report result μm): 28.7 μm
  Polymorphic form (XRPD) (Consistent with form 2 reference diffractogram): C
  Purity by HPLC (NLT 98.0% area): 100.0 % area
  Total impurities (NMT 2.0% area): 0.00 % area
  Water Content by Kf (Report result % w/w): 9.2 % w/w
